Tested on: KRAS patient-derived spheroids with HUVEC/MSC, viability
Assay: Anticancer human tumor 519858-162-T-J1-PDC patient-derived colon adenocarcinoma cell line growth inhibition [KRAS2]
Details: for IC50: curve of first compound; for viability, T/C: stronger effect = lower value
Source text: Multicellular complex tumor spheroid response to RAS pathway inhibitors in combination with a targeted agents in patient-derived cell lines with oncogenic KRAS variants from multiple cancer types
A high-throughput screen of multi-cell type tumor spheroids was designed to identify active combinations of targeted small molecules and KRAS pathway inhibitors. Complex spheroids include a stromal component modeled by human endothelial cells (HUVEC) and fibroblasts modeled by human mesenchymal stem cells (MSCs). The concentration ranges selected for each drug and investigational agent were based upon clinically achievable concentrations if the clinical Cmax of the agent was known.
Compounds. The drugs and investigational agents: BI-3406 (NSC825286), BAY-293 (NSC824723), batoprotafib (TNO155; NSC825523), sotorasib (AMG 510; NSC818433), MRTX1257 (NSC819558), elimusertib (BAY 1895344; NSC800525), molibresib (GSK525762; NSC774829), temuterkib (LY3214996; NSC803410), venetoclax (NSC766270), alisertib (NSC759677), olaparib (NSC753686), talazoparib (NSC767125), erdafitinib (NSC781556), ipatasertib (NSC767898), cabozantinib (NSC761068), nintedanib (NSC756659), abemaciclib (NSC768073), docetaxel (NSC628503), trametinib (NSC758246), and sapanisertib (NSC764658) were obtained from the National Cancer Institute (NCI) Developmental Therapeutics Program Chemical Repository. The FDA-approved anticancer drug set is available from the Developmental Therapeutics Program. […] The stock solutions were prepared in dimethyl sulfoxide (DMSO, Sigma-Aldrich, St. Louis, MO, cat. D2650) at 800-fold the tested concentration and stored at -70 degrees C prior to their use. All drugs and investigational agents were tested over a range starting from a high concentration at or near the clinical Cmax and decreasing in half-log increments. If the clinical Cmax for an agent had not been determined, the highest concentration tested was 10 microM.
Cell Culture. All cells were maintained in an incubator at 37 degrees C and 5% CO2 with 95% humidity. The PDC lines were cultured according to standard operating procedures established by the NCI PDMR (https://pdmr.cancer.gov/sops/default.htm). Briefly, all PDCs were thawed and cultured in Matrigel-coated flasks prepared with a working solution of 1X Ham's F-12 nutrient mix, without supplementation (Invitrogen, Waltham, MA, cat. 11765054), 100 U/mL penicillin-streptomycin (Invitrogen, cat. 15140122), and 2.5% Matrigel (Corning Inc., Corning, NY, cat. 354248) for the first three passages. All PDCs were cultured in complete DMEM/F-12 media containing advanced DMEM/F-12 (Invitrogen, cat. 12634028), 4.9% defined fetal bovine serum, heat inactivated (HyClone Laboratories Inc., Logan, UT, cat. SH30070.03HI), 389 ng/mL hydrocortisone (Sigma-Aldrich, cat. H4001), 9.7 ng/mL human EGF recombinant protein (Invitrogen, cat. PHG0313), 23.4 microg/mL adenine (Sigma-Aldrich, cat. A2786), 97.3 U/mL penicillin-streptomycin (Invitrogen, cat. 15140122), 1.9 mM L-glutamine (Invitrogen, cat. 25030081), and 9.7 microM Y-27632 dihydrochloride (Tocris Bioscience, Bristol, United Kingdom, cat. 1254). The PDCs were cultured in complete DMEM/F12 media without 9.7 microM Y-27632 dihydrochloride for at least two passages prior to the screen. The established cell line HOP-62 was cultured in RPMI 1640 medium, HEPES (Invitrogen, cat. 22400105) with 10% defined fetal bovine serum (HyClone Laboratories Inc., cat. SH30070.03) and 2 mM L-glutamine (Invitrogen, cat. 25030081). The pooled donor HUVEC were cultured in endothelial cell growth medium 2 (PromoCell, Heidelberg, Germany, cat. C-22011) and the hMSC were cultured in mesenchymal stem cell growth medium 2 (PromoCell, cat. C-28009). For all experiments, HUVEC and hMSC were used at passages </=5, while the malignant cell lines were used at passages </=15. […]

[1] = second compound 0.1 µM, first compound 0.01 µM
[2] = second compound 0.1 µM, first compound 0.0316 µM
[3] = second compound 0.1 µM, first compound 0.1 µM
[4] = second compound 0.316 µM, first compound 0.01 µM
[5] = second compound 0.316 µM, first compound 0.0316 µM
[6] = second compound 0.316 µM, first compound 0.1 µM
[7] = second compound 1 µM, first compound 0.01 µM
[8] = second compound 1 µM, first compound 0.0316 µM
[9] = second compound 1 µM, first compound 0.1 µM
[10] = second compound 3.16 µM, first compound 0.01 µM
[11] = second compound 3.16 µM, first compound 0.0316 µM
[12] = second compound 3.16 µM, first compound 0.1 µM
[13] = second compound 10 µM, first compound 0.01 µM
[14] = second compound 10 µM, first compound 0.0316 µM
[15] = second compound 10 µM, first compound 0.1 µM
[16] = second compound 0.1 µM, first compound 0.316 µM
[17] = second compound 0.1 µM, first compound 1 µM
[18] = second compound 0.1 µM, first compound 3.16 µM
[19] = second compound 0.1 µM, first compound 10 µM
[20] = second compound 0.316 µM, first compound 0.316 µM
[21] = second compound 0.316 µM, first compound 1 µM
[22] = second compound 0.316 µM, first compound 3.16 µM
[23] = second compound 0.316 µM, first compound 10 µM
[24] = second compound 1 µM, first compound 0.316 µM
[25] = second compound 1 µM, first compound 1 µM
[26] = second compound 1 µM, first compound 3.16 µM
[27] = second compound 1 µM, first compound 10 µM
[28] = second compound 3.16 µM, first compound 0.316 µM
[29] = second compound 3.16 µM, first compound 1 µM
[30] = second compound 3.16 µM, first compound 3.16 µM
[31] = second compound 3.16 µM, first compound 10 µM
[32] = second compound 10 µM, first compound 0.316 µM
[33] = second compound 10 µM, first compound 1 µM
[34] = second compound 10 µM, first compound 3.16 µM
[35] = second compound 10 µM, first compound 10 µM
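Also: compound exposure lasted seven days before readout.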
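For viability, T/C in this document: 100% = DMSO vehicle control viability.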

Structure (SMILES)	IC50 (second compound 0.1 µM)	IC50 (second compound 0.316 µM)	IC50 (second compound 1 µM)	IC50 (second compound 3.16 µM)	IC50 (second compound 10 µM)	viability, T/C [2]	viability, T/C [3]	viability, T/C [5]	viability, T/C [6]	viability, T/C [8]	viability, T/C [9]	viability, T/C [11]	viability, T/C [12]	viability, T/C [14]	viability, T/C [15]	viability, T/C [16]	viability, T/C [17]	viability, T/C [18]	viability, T/C [20]	viability, T/C [21]	other results
CC(C)n1nc(-c2ccc3oc(N)nc3c2)c2c(N)ncnc21 + C=CC(=O)N1CCN(c2nc(=O)n(-c3c(C)ccnc3C(C)C)c3nc(-c4c(O)cccc4F)c(F)cc23)C(C)C1	> 100 nM	> 100 nM	> 100 nM	> 100 nM	81.5 nM	76.3%	60.1%	57.6%	54.5%	87.3%	54.9%	64%	56.1%	62.3%	47.1%						viability, T/C (second compound 0.1 µM, first compound 0.000316 µM): 114%; viability, T/C (second compound 0.1 µM, first compound 0.001 µM): 102%; viability, T/C (second compound 0.1 µM, first compound 0.00316 µM): 104%; viability, T/C [1]: 67.5%; viability, T/C (second compound 0.316 µM, first compound 0.000316 µM): 87.5%; viability, T/C (second compound 0.316 µM, first compound 0.001 µM): 94%; viability, T/C (second compound 0.316 µM, first compound 0.00316 µM): 70.2%; viability, T/C [4]: 58.9%; viability, T/C (second compound 1 µM, first compound 0.000316 µM): 108%; viability, T/C (second compound 1 µM, first compound 0.001 µM): 78.4%; viability, T/C (second compound 1 µM, first compound 0.00316 µM): 67.3%; viability, T/C [7]: 56.7%; viability, T/C (second compound 3.16 µM, first compound 0.000316 µM): 94.3%; viability, T/C (second compound 3.16 µM, first compound 0.001 µM): 75.1%; viability, T/C (second compound 3.16 µM, first compound 0.00316 µM): 74.6%; viability, T/C [10]: 68.8%; viability, T/C (second compound 10 µM, first compound 0.000316 µM): 85.4%; viability, T/C (second compound 10 µM, first compound 0.001 µM): 76.6%; viability, T/C (second compound 10 µM, first compound 0.00316 µM): 69.6%; viability, T/C [13]: 86.7%
COc1cc2nccc(Oc3ccc(NC(=O)C4(C(=O)Nc5ccc(F)cc5)CC4)cc3)c2cc1OC + CC1OCC2(CCN(c3cnc(Sc4ccnc(N)c4Cl)c(N)n3)CC2)C1N	> 10000 nM	> 10000 nM	> 10000 nM	> 10000 nM	> 10000 nM	68.4%	72.7%	64.3%	62.7%	64.4%	74.4%	57.9%	68.1%	78.2%	92.5%	83.2%	84.7%	94%	78.9%	92.6%	viability, T/C [19]: 130%; viability, T/C [22]: 150%; viability, T/C [23]: 96.4%; viability, T/C [24]: 90%; viability, T/C [25]: 93.1%; viability, T/C [26]: 143%; viability, T/C [27]: 85.8%; viability, T/C [28]: 88.5%; viability, T/C [29]: 71.9%; viability, T/C [30]: 80.7%; viability, T/C [31]: 99.4%; viability, T/C [32]: 110%; viability, T/C [33]: 103%; viability, T/C [34]: 107%; viability, T/C [35]: 70.6%
CCNC(=O)CC1N=C(c2ccc(Cl)cc2)c2cc(OC)ccc2-n2c(C)nnc21 (stereo not given) + C=CC(=O)N1CCN(c2nc(=O)n(-c3c(C)ccnc3C(C)C)c3nc(-c4c(O)cccc4F)c(F)cc23)C(C)C1	2660 nM	2380 nM	2560 nM	2210 nM	2680 nM	120%	97.1%	102%	95.2%	76%	74.6%	93.9%	86.3%	93.9%	78.5%	74.8%	70.3%	42.1%	79.8%	54.7%	viability, T/C [19]: 37.1%; viability, T/C [22]: 53%; viability, T/C [23]: 29.7%; viability, T/C [24]: 70.4%; viability, T/C [25]: 79.6%; viability, T/C [26]: 44.2%; viability, T/C [27]: 28.3%; viability, T/C [28]: 101%; viability, T/C [29]: 78.2%; viability, T/C [30]: 37.6%; viability, T/C [31]: 29.4%; viability, T/C [32]: 97.6%; viability, T/C [33]: 84.7%; viability, T/C [34]: 44.1%; viability, T/C [35]: 25.4%
CC(=O)OC12COC1CC(O)C1(C)C(=O)C(O)C3=C(C)C(OC(=O)C(O)C(NC(=O)OC(C)(C)C)c4ccccc4)CC(O)(C(OC(=O)c4ccccc4)C21)C3(C)C (stereo not given) + COc1cc2nc(C)nc(NC(C)c3cc(N)cc(C(F)(F)F)c3)c2cc1OC1CCOC1	> 3160 nM	> 3160 nM	> 3160 nM	> 3160 nM	> 3160 nM	115%	98.3%	112%	99%	76.1%	105%	112%	76.4%	97.4%	65%	122%	92%	94.6%	71.6%	66.9%	viability, T/C [1]: 123%; viability, T/C [4]: 99%; viability, T/C [22]: 78.9%; viability, T/C [7]: 91.3%; viability, T/C [24]: 89.8%; viability, T/C [25]: 110%; viability, T/C [26]: 90.9%; viability, T/C [10]: 72%; viability, T/C [28]: 79.7%; viability, T/C [29]: 56.1%; viability, T/C [30]: 82.3%; viability, T/C [13]: 112%; viability, T/C [32]: 62.7%; viability, T/C [33]: 66.5%; viability, T/C [34]: 96.8%

Source: PubChem BioAssay AID1963872 (Molecular Pharmacology Branch, DTP, NCI, 2024)
